In patent US11458112B2, “Compositions and methods for inducing defecation” (Dignify Therapeutics, LLC, priority 2019, dated 2022):
Marks after values point to notes of the source that are not given here.

What was measured:
[1] = test system: anesthetized spinal intact rats; test: Rectal pressure (balloon catheter) after intrarectal capsaicin solution in anesthetized spinal intact rats; type: in vivo, rat
Method: (§1) General: In vivo studies were performed in anesthetized, acute spinal cord injured (SCI) rats, anesthetized spinal intact rats, and awake chronic spinal cord injured rats. Adult female and male Sprague Dawley rats (Charles River, N.C.; 250-650 g) were housed at an AAALAC approved facility in cages (1-3/cage) with free access to water and food in a colony room that was maintained on a 12 hr/12 hr light/dark cycle.
(§2) For all rectal contractility studies, animals were anesthetized with urethane (1.0-1.4 g/kg subcutaneous injection). Surgical procedures were then performed with the addition of isoflurane anesthesia (0.05-1.5% in O2) as needed.
(§3) Rectal Contractility: Rectal pressures were measured via a latex balloon catheter (length 1.5-4 cm) inserted (˜4 cm) into the distal rectal region. The catheter was connected to a pressure monitoring system. […] Parameters measured included peak rectal pressure response, duration of time above baseline activity (in the 1st 5 min after drug administration), area under the curve (measured during the 1st 5 min after drug administration) and the number of contractile events after vehicle and drug administration.
(§4) Dosing: Intrarectal capsaicin was administered in a dose range of 0.1-2% wt/vol. Capsaicin was dissolved in 95% ethanol at 50-100 mg/mL and then diluted to 2-20 mg/mL with either saline or water to form a suspension and administered intrarectally as a solution using a micropipette, blunt tip tube (22 G) or as a small solution-soaked cotton ball (3-5 mm diameter). Vehicle doses were prepared using the same concentrations of ethanol in water or saline.
Methods: Capsaicin was administered to anesthetized spinal intact male and female rats (N=4 males and 1 female) instrumented for rectal pressure recording via a balloon catheter inserted into the rectum 2-4 cm from the anus. Capsaicin was administered as 0.2% solution (0.05-0.32 mL of a 2 mg/ml solution in 4.7 or 9.5% ethanol/saline) via a PE50 tube that was inserted into the rectum alongside the balloon catheter. For comparison, vehicle was administered to all rats using the same techniques.
Methods: Capsaicin was administered to an anesthetized spinal intact male rat instrumented for rectal pressure recording via a balloon catheter inserted into the rectum 2-4 cm from the anus. Capsaicin was administered as 0.2% solution (0.2%, 0.25 mL) in ethanol/saline via a PE50 tube that was inserted into the rectum alongside the balloon catheter. Vehicle was administered to all rats using the same techniques. Administration of capsaicin solution is indicated by filled arrow in FIG. 3.

conscious cSCI rats = test: Defecation in metabolism cages after intrarectal dosing in conscious chronic spinal cord injured rats; type: in vivo, rat; settings: for Number of fecal pellets / Total fecal weight: 0.1 mL intrarectal, within 10 min of dosing, N=6, mean + SD
Method: as §1
For chronic SCI model preparation, animals were anesthetized with a mixture of ketamine/xylazine (50-100 mg/kg and 5-10 mg/kg intraperitoneal, respectively), the skin and muscle on the dorsal side at the level of the thoracic vertebrae were incised, and the spinal cord was carefully exposed by a laminectomy and transected at either T3-T4 or T8-T10 spinal level. Gelfoam® was placed at the incision site and the muscle and skin overlying the vertebrae were closed with wound clips. The animal recovered from surgery for 7-10 weeks before being studied.
Defecation in awake animals was monitored in metabolism cages. Animals were habituated to handling and the metabolism cages on 2-4 occasions prior to dosing and were then randomized to a treatment arm. Rats were weighed and placed into metabolism cages for 10 min prior to intrarectal administration of vehicle or capsaicin. The number of fecal pellets and timing of events were recorded by trained personnel that were blinded to treatment. Fecal weight is weighed at 10 and 30 min post dosing. Animals were re-tested 2-3 days later in a cross over design.
as §4
Methods: Defecation in rats was monitored in metabolism cages. Chronic spinal cord injured (cSCI) rats were habituated to handling and the metabolism cages on 2-4 occasions before dosing, then randomized to the treatment arm. Rats were weighed and placed into metabolism cages for 10 min prior to receiving an intrarectal dose of vehicle or capsaicin. Since manual stimulation during intrarectal dosing in conscious rats can induce defecation, the tip of a small cotton swab was inserted into the anus prior to dose administration, to stimulate natural defecation of any fecal pellets that were located in the region of the anal sphincter. […] Once the anal sphincter had ceased contracting/relaxing (15-90 s) a fine catheter (22 G soft/flexible blunt tip catheter) was used to dose the vehicle or capsaicin, as this method produced little manual stimulation. Capsaicin was prepared as a 0.2 or 2% solution (2 or 20 mg/ml in diluted ethanol/water; vehicle corresponding to each dose concentration was 1.9 and 19% ethanol/water, respectively). Dose volumes were 0.1 mL and administered via the catheter inserted ˜1 inch through the anus into the rectum. The number of fecal pellets and timing of events were recorded by trained personnel blinded to the treatment. Fecal weight was recorded at 10 and 30 min post dosing. Animals were re-tested 2-3 days later in a cross over design.

[2] = test system: healthy subjects and subjects having irritable bowel syndrome (IBS); settings: concentrations of 0.01% and 0.1%, both groups; cited from earlier work
[3] = test system: anesthetized acute T9-transected SCI rats; test: Rectal pressure after intrarectal capsaicin-soaked cotton ball in anesthetized acute SCI rats; type: in vivo, rat; settings: cotton ball soaked in 50 uL of 0.2% solution, 2 female rats
Method: as §1
For the acute SCI model, animals were anesthetized with urethane (1.0-1.4 g/kg subcutaneous injection), the skin and muscle on the dorsal side at the level of the thoracic vertebrae were incised, and the spinal cord was carefully exposed by a laminectomy and transected at T8-T10 spinal level. Gelfoam® was placed at the incision site and the muscle and skin overlying the vertebrae were closed with wound clips. The spinal cord was transected at least 60 min before starting the experimental protocol.
as §2, §3
Dosing: Intrarectal capsaicin was administered in a dose range of 0.1-2% wt/vol. […]
Methods: Capsaicin was administered to 2 anesthetized acute T9-transected SCI female rats instrumented for rectal pressure recording via a balloon catheter inserted into the rectum 2-4 cm from the anus. […] Top and bottom traces in FIG. 4 were recorded from separate rats.

[4] = 0.2% capsaicin solution intrarectal
[5] = 0.2%, 0.25 mL intrarectal, one male rat (Example 3)

Compound: COc1cc(CNC(=O)CCCC/C=C/C(C)C)ccc1O [Capsaicin, 8-methyl-N-vanillyl-6-nonenamide]
- response to repeat dosing ([1]; 0.2% capsaicin repeated 20 min after the initial dose): evoked a similar response
- duration of rectal pressure increase [1, 4]: 5 min
- onset time of rectal pressure increase [1, 4]: 1 to 2 min
- rats with transient rectal pressure increase ([1]; 0.2% capsaicin solution intrarectal, 0.05-0.32 mL, N=4 males and 1 female): 5 of 5
- expulsion of rectal balloon catheter [1, 5]: expelled from the rectum through the anus
- onset of increase in rectal pressure [1, 5]: ≤ 1 min
- number and total weight of fecal pellets expelled compared to vehicle (conscious cSCI rats; 0.2 or 2% intrarectal): significantly increased
- time to completion of defecation (conscious cSCI rats; 0.2 or 2% intrarectal): ≤ 10 min
- time to defecation (conscious cSCI rats; 0.2 or 2% intrarectal): ≤ 5 min
- Number of fecal pellets (conscious cSCI rats; Capsaicin 0.2%): 2.17 + 0.84 ^+
- Total fecal weight (conscious cSCI rats; Capsaicin 0.2%): 1.169 + 0.0489 g
- Number of fecal pellets (conscious cSCI rats; Capsaicin 2%): 2.00 + 0.68 ^+
- Total fecal weight (conscious cSCI rats; Capsaicin 2%): 1.265 + 0.414 * g
- defecation between 10-30 min post-dosing (conscious cSCI rats; any group): No defecation was observed
- reported sensations following intrarectal administration [2]: discomfort and “an urge to defecate”, but not defecation
- duration of rectal pressure increase [3]: < 5 min
- onset of rectal pressure increase [3]: < 2 min
- rats with capsaicin-induced rectal pressure increase [3]: both rats
